Experimental data as given in article PMC4843002, “Identification of pyrazolopyridazinones as PDEδ inhibitors” (Nature Communications, 2016).

What was measured:
[1] = target: T1, AT2 (h) (Homo sapiens, UniProt P50052); experiment: Cerep binding, agonist radioligand; conditions: read-out: % Inhibition of Control Specific Binding
T1 construct: purchased Eurofins Pharma Discovery Services (CEREP diversity panel)

[2] = target: T2, beta 2 (h) (Homo sapiens, UniProt P07550); experiment: Cerep binding, agonist radioligand; conditions: read-out: % Inhibition of Control Specific Binding
T2 construct: purchased Eurofins Pharma Discovery Services (CEREP diversity panel)

[3] = target: T3, H2 (h) (Homo sapiens, UniProt P25021); experiment: Cerep binding, antagonist radioligand; conditions: read-out: % Inhibition of Control Specific Binding
T3 construct: purchased Eurofins Pharma Discovery Services (CEREP diversity panel)
T3 sequence (P25021 whole entry): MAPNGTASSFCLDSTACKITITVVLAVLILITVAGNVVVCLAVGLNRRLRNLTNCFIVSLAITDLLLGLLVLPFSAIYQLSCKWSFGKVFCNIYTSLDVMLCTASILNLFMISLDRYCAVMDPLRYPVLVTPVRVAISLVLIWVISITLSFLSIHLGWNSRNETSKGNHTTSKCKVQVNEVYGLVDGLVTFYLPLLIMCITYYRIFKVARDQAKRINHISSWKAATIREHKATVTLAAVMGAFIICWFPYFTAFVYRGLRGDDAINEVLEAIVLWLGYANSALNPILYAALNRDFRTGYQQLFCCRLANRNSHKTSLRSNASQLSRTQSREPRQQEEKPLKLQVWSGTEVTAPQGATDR

[4] = system: sigma (non-selective) (h); experiment: Cerep binding, agonist radioligand; design: species or system human; conditions: 5 µM
[5] = target: T4, CB2 (h) (Homo sapiens, UniProt P34972); experiment: Cerep binding, agonist radioligand; conditions: read-out: % Inhibition of Control Specific Binding
T4 construct: purchased Eurofins Pharma Discovery Services (CEREP diversity panel)

[6] = target: T5, sirtuin 2 (h) (inhibitor effect) (Homo sapiens, UniProt Q8IXJ6); experiment: Cerep enzyme and cell-based assays; type: biochemical; conditions: read-out: % Inhibition of Control Values
T5 construct: Eurofins Pharma Discovery Services (CEREP diversity panel, outsourced assay)
T5 sequence (Q8IXJ6 whole entry): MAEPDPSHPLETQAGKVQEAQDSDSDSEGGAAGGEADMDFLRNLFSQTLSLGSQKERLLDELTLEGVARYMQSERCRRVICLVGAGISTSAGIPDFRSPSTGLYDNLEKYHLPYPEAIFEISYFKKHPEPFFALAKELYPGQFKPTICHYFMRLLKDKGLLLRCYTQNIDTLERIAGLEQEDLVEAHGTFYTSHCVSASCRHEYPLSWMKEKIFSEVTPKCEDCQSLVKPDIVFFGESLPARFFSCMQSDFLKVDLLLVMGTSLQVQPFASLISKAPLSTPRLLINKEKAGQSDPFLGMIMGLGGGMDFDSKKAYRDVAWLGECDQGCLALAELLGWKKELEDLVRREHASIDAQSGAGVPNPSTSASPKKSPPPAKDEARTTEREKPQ

[7] = target: T6, PDE2A1 (h) (Homo sapiens, UniProt O00408); experiment: Cerep enzyme and cell-based assays; type: biochemical; conditions: read-out: % Inhibition of Control Values
T6 construct: Eurofins Pharma Discovery Services (CEREP diversity panel, outsourced assay)

[8] = target: T7, 5-HT transporter (h) (Homo sapiens, UniProt P31645); experiment: Cerep binding, antagonist radioligand; conditions: read-out: % Inhibition of Control Specific Binding
T7 construct: purchased Eurofins Pharma Discovery Services (CEREP diversity panel)

[9] = system: alpha 1 (non-selective); experiment: Cerep binding, antagonist radioligand; conditions: 5 µM
[10] = target: T8, BLT1 (LTB4) (h) (Homo sapiens, UniProt Q15722); experiment: Cerep binding, agonist radioligand; conditions: read-out: % Inhibition of Control Specific Binding
T8 construct: purchased Eurofins Pharma Discovery Services (CEREP diversity panel)
T8 sequence (Q15722 whole entry): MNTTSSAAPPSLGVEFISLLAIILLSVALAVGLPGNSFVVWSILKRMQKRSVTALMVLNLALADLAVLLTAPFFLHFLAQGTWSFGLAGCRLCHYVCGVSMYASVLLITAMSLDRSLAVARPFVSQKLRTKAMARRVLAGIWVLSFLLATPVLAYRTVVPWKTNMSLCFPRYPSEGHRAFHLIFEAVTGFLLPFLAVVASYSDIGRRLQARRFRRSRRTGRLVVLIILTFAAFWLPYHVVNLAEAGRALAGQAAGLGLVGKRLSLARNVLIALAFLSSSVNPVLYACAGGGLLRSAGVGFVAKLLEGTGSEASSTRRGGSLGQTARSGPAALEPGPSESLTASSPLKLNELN

[11] = target: choline transporter (CHT1) (h) (Homo sapiens, UniProt Q9GZV3); experiment: Cerep binding, antagonist radioligand; conditions: read-out: % Inhibition of Control Specific Binding
[12] = target: T9, MC4 (h) (Homo sapiens, UniProt P32245); experiment: Cerep binding, agonist radioligand; conditions: read-out: % Inhibition of Control Specific Binding
T9 construct: purchased Eurofins Pharma Discovery Services (CEREP diversity panel)

[13] = system: PCP; experiment: Cerep binding, antagonist radioligand; conditions: 5 µM
[14] = target: T10, D2S (h) (Homo sapiens, UniProt P14416); experiment: Cerep binding, antagonist radioligand; conditions: read-out: % Inhibition of Control Specific Binding
T10 construct: purchased Eurofins Pharma Discovery Services (CEREP diversity panel)

[15] = system: 5-HT (non-selective); experiment: Cerep binding, agonist radioligand; conditions: 5 µM
[16] = system: Y (non-selective); experiment: Cerep binding, agonist radioligand; conditions: 5 µM
[17] = target: T11, A2A (h) (Homo sapiens, UniProt P29274); experiment: Cerep binding, agonist radioligand; conditions: read-out: % Inhibition of Control Specific Binding
T11 construct: purchased Eurofins Pharma Discovery Services (CEREP diversity panel)

[18] = system: Ca2+ channel (L, dihydropyridine site); experiment: Cerep binding, antagonist radioligand; conditions: 5 µM
[19] = target: T12, CRF1 (h) (Homo sapiens, UniProt P34998); experiment: Cerep binding, agonist radioligand; conditions: read-out: % Inhibition of Control Specific Binding
T12 construct: purchased Eurofins Pharma Discovery Services (CEREP diversity panel)
T12 sequence (P34998 24-415): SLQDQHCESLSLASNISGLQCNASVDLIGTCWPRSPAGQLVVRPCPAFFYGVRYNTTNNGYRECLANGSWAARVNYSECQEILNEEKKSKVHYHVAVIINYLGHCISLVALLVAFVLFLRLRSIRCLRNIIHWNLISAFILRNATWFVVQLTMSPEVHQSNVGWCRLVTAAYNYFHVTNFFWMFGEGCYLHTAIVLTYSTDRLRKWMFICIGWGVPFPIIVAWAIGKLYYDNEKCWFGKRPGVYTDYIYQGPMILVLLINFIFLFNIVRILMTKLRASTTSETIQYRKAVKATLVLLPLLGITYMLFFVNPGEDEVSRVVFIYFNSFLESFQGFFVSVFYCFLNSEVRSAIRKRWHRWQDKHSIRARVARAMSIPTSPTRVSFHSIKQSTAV

[20] = system: SKCa channel; experiment: Cerep binding, antagonist radioligand; conditions: 5 µM
[21] = target: T13, ETA (h) (Homo sapiens, UniProt P25101); experiment: Cerep binding, agonist radioligand; conditions: read-out: % Inhibition of Control Specific Binding
T13 construct: purchased Eurofins Pharma Discovery Services (CEREP diversity panel)

[22] = target: T14, PPARgamma (h) (Homo sapiens, UniProt P37231); experiment: Cerep binding, agonist radioligand; conditions: read-out: % Inhibition of Control Specific Binding
T14 construct: purchased Eurofins Pharma Discovery Services (CEREP diversity panel)
T14 sequence (P37231 whole entry): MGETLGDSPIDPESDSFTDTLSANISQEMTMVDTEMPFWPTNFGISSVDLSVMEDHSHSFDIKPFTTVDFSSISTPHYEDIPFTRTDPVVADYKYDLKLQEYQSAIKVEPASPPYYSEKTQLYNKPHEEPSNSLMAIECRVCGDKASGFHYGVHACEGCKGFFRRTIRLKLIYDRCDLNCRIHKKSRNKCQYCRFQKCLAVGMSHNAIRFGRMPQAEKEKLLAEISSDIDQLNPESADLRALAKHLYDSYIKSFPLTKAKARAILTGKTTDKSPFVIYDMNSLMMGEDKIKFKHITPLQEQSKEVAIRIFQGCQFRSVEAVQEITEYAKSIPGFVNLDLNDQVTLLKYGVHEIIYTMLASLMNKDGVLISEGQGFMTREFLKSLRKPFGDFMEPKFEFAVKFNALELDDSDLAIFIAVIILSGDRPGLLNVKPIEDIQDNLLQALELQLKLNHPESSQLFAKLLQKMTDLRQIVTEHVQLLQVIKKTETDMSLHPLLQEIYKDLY

[23] = system: P2X; experiment: Cerep binding, agonist radioligand; conditions: 5 µM
[24] = system: Cl- channel (GABA-gated); experiment: Cerep binding, antagonist radioligand; conditions: 5 µM
[25] = target: T15, Eg5 (h) (Homo sapiens, UniProt P52732); experiment: Cerep enzyme and cell-based assays; type: biochemical; conditions: read-out: % Inhibition of Control Values
T15 construct: Eurofins Pharma Discovery Services (CEREP diversity panel, outsourced assay)

[26] = target: T16, CB1 (h) (Homo sapiens, UniProt P21554); experiment: Cerep binding, agonist radioligand; conditions: read-out: % Inhibition of Control Specific Binding
T16 construct: purchased Eurofins Pharma Discovery Services (CEREP diversity panel)

[27] = target: T17, 5-lipoxygenase (h) (Homo sapiens, UniProt P09917); experiment: Cerep enzyme and cell-based assays; type: biochemical; conditions: read-out: % Inhibition of Control Values
T17 construct: purchased Eurofins Pharma Discovery Services (CEREP diversity panel)

[28] = target: T18, HDAC3 (h) (Homo sapiens, UniProt O15379); experiment: Cerep enzyme and cell-based assays; type: biochemical; conditions: read-out: % Inhibition of Control Values
T18 construct: Eurofins Pharma Discovery Services (CEREP diversity panel, outsourced assay)

[29] = target: T19, B1 (h) (Homo sapiens, UniProt P46663); experiment: Cerep binding, agonist radioligand; conditions: read-out: % Inhibition of Control Specific Binding
T19 construct: purchased Eurofins Pharma Discovery Services (CEREP diversity panel)

[30] = target: T20, NK3 (h) (Homo sapiens, UniProt P29371); experiment: Cerep binding, antagonist radioligand; conditions: read-out: % Inhibition of Control Specific Binding
T20 construct: purchased Eurofins Pharma Discovery Services (CEREP diversity panel)

[31] = target: T21, PDE1B (h) (Homo sapiens, UniProt Q01064); experiment: Cerep enzyme and cell-based assays; type: biochemical; conditions: read-out: % Inhibition of Control Values
T21 construct: purchased Eurofins Pharma Discovery Services (CEREP diversity panel)
T21 sequence (Q01064 whole entry): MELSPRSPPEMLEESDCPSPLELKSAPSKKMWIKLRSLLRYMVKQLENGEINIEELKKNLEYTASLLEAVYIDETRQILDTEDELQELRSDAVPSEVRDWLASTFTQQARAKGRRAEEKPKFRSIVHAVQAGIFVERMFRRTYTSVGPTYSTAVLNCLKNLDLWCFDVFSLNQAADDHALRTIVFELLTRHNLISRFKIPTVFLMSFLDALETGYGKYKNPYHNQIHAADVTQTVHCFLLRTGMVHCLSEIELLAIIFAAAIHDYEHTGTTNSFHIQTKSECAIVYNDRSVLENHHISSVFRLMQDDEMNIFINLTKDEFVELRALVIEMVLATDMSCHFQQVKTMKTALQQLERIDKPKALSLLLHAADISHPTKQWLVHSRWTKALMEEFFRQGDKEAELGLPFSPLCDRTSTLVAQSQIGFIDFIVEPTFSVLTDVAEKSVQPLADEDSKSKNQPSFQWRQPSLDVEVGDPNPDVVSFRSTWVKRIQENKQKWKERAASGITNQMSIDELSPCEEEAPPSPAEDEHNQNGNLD

[32] = target: T22, AR (h) (Homo sapiens, UniProt P10275, T878A); experiment: Cerep binding, agonist radioligand; conditions: read-out: % Inhibition of Control Specific Binding
T22 construct: purchased Eurofins Pharma Discovery Services (CEREP diversity panel)
T22 sequence (P10275 whole entry T878A): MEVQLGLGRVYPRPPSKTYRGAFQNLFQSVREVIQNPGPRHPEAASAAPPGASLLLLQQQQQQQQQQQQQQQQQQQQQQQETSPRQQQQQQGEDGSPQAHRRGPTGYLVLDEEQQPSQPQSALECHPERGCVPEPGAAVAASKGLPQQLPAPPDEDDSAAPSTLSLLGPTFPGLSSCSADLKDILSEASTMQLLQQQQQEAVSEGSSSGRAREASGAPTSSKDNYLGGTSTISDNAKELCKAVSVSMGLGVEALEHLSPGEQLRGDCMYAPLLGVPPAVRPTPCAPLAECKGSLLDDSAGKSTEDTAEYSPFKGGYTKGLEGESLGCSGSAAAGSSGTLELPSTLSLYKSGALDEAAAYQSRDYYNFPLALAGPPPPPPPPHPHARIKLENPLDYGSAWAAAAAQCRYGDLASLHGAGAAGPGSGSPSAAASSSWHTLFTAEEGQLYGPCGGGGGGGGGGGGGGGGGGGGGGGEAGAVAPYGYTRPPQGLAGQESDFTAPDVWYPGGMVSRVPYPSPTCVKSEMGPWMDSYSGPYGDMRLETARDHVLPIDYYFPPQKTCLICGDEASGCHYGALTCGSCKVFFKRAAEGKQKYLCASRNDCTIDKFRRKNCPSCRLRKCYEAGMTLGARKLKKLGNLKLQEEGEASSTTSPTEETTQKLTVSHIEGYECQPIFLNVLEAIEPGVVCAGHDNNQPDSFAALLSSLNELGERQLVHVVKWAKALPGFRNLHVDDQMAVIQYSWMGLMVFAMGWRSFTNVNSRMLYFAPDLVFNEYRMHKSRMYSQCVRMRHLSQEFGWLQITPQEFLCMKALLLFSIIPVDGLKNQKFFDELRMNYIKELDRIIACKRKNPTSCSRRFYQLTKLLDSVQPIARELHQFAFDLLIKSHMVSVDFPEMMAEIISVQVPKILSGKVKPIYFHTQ

[33] = target: T23, D1 (h) (Homo sapiens, UniProt P21728); experiment: Cerep binding, antagonist radioligand; conditions: read-out: % Inhibition of Control Specific Binding
T23 construct: purchased Eurofins Pharma Discovery Services (CEREP diversity panel)

[34] = system: S6P phosphorylation; experiment: western blot, S6P phosphorylation in Panc-Tu-I; conditions: 1 h, 5 μM Deltarasin or 20 μM Deltazinone 1, 5 min EGF
Description: To examine whether PDEδ inhibition by Deltarasin and Deltazinone 1 downregulates the signal transduction via these pathways, we examined the phosphorylation of extracellular signal regulated kinase (Erk) and S6 Ribosomal Protein (S6P) in the oncogenic KRas-dependent Panc-Tu-1 and KRas-independent PANC-1 cells. […] Cells were lysed with RIPA-buffer (20 mM Tris pH 7.5, 150 mM NaCl, 0.5 mM Na2 EDTA, 1 % sodium deoxycholate, 0.1% sodium dodecyl sulfate, 1% IGEPAL supplemented with Complete Mini EDTA-free protease inhibitor (Roche Applied Science) and 1% phosphatase inhibitor cocktail 2 and 3 (P5726 and P0044, Sigma Aldrich), scraped off after 5 min on ice and centrifuged at 14,000g for 20 min at 4 °C. SDS–polyacrylamide gel electrophoresis was carried out with 10–25 μg of whole-cell lysate from each sample. The gels were blotted onto polyvinylidene difluoride membrane (Millipore) and blocked for 1 h at room temperature. […] Blots were scanned on a LI-COR Odyssey imaging system.
Western blots were quantified using ImageJ. The background of the blots was subtracted by applying the rolling ball subtraction with a radius of 50 pixels. Afterwards the integrated intensity of the bands was measured.

[35] = target: T24, V2 (h) (Homo sapiens, UniProt P30518); experiment: Cerep binding, agonist radioligand; conditions: read-out: % Inhibition of Control Specific Binding
T24 construct: purchased Eurofins Pharma Discovery Services (CEREP diversity panel)
T24 sequence (P30518 whole entry): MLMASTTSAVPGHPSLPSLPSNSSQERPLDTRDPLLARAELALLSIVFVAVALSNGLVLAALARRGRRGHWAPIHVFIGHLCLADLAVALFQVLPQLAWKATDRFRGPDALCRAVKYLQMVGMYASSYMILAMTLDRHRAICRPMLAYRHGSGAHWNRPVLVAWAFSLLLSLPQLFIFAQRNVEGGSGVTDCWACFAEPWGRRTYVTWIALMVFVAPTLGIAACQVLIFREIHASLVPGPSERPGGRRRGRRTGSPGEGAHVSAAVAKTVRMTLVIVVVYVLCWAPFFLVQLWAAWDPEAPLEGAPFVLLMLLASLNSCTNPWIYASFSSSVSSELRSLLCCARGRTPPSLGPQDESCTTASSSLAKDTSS

[36] = system: GABA (non-selective); experiment: Cerep binding, agonist radioligand; conditions: 5 µM
[37] = target: T25, NOP (ORL1) (h) (Homo sapiens, UniProt P41146); experiment: Cerep binding, agonist radioligand; conditions: read-out: % Inhibition of Control Specific Binding
T25 construct: purchased Eurofins Pharma Discovery Services (CEREP diversity panel)

[38] = target: T26, D4.4 (h) (Homo sapiens, UniProt P21917); experiment: Cerep binding, antagonist radioligand; conditions: read-out: % Inhibition of Control Specific Binding
T26 construct: purchased Eurofins Pharma Discovery Services (CEREP diversity panel)
T26 sequence (P21917 whole entry): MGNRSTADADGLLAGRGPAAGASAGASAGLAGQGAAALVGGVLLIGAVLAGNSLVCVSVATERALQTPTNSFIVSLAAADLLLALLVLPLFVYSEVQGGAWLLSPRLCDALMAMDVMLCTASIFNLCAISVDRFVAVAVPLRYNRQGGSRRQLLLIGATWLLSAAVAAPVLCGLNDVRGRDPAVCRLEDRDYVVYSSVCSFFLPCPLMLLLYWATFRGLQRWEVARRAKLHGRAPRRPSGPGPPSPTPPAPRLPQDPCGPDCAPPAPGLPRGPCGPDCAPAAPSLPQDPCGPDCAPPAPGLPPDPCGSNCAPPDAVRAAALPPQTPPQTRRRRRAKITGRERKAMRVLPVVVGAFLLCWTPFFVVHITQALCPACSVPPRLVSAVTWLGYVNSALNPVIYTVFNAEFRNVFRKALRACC

[39] = target: T27, beta 1 (h) (Homo sapiens, UniProt P08588); experiment: Cerep binding, agonist radioligand; conditions: read-out: % Inhibition of Control Specific Binding
T27 construct: purchased Eurofins Pharma Discovery Services (CEREP diversity panel)

[40] = target: T28, norepinephrine transporter (h) (Homo sapiens, UniProt P23975); experiment: Cerep binding, antagonist radioligand; conditions: read-out: % Inhibition of Control Specific Binding
T28 construct: purchased Eurofins Pharma Discovery Services (CEREP diversity panel)

[41] = target: T29, CCK2 (CCKB) (h) (Homo sapiens, UniProt P32239); experiment: Cerep binding, agonist radioligand; conditions: read-out: % Inhibition of Control Specific Binding
T29 construct: purchased Eurofins Pharma Discovery Services (CEREP diversity panel)
T29 sequence (P32239 whole entry): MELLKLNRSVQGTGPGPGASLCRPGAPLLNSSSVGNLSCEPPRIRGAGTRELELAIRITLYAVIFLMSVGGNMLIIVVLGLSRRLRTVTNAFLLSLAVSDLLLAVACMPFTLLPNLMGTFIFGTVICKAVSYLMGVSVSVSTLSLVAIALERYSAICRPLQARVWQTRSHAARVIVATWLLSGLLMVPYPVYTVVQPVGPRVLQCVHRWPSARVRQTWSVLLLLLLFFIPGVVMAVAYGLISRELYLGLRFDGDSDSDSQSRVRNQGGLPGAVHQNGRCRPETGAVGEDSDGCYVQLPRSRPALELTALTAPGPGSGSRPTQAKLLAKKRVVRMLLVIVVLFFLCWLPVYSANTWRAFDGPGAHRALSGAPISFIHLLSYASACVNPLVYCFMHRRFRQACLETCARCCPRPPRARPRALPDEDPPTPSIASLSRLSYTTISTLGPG

[42] = system: NMDA; experiment: Cerep binding, antagonist radioligand; conditions: 5 µM
[43] = target: T30, EP2 (h) (Homo sapiens, UniProt P43116); experiment: Cerep binding, agonist radioligand; conditions: read-out: % Inhibition of Control Specific Binding
T30 construct: purchased Eurofins Pharma Discovery Services (CEREP diversity panel)

[44] = system: KV channel; experiment: Cerep binding, antagonist radioligand; conditions: 5 µM
[45] = target: T31, A3 (h) (Homo sapiens, UniProt P0DMS8); experiment: Cerep binding, agonist radioligand; conditions: read-out: % Inhibition of Control Specific Binding
T31 construct: purchased Eurofins Pharma Discovery Services (CEREP diversity panel)

[46] = system: opioid (non-selective); experiment: Cerep binding, antagonist radioligand; conditions: 5 µM

## c1ccc(Cn2c(-c3ccc(OC[C@H](C4CCNCC4)n4c(-c5ccccc5)nc5ccccc54)cc3)nc3ccccc32)cc1 [Deltarasin, reference compound]
[1]
  inhibition at 5 µM: 49%
[2]
  inhibition at 5 µM: 7%
[3]
  inhibition at 5 µM: 38%
[4]
  % Inhibition of Control Specific Binding: 57%
[5]
  inhibition at 5 µM: 24%
[6]
  inhibition at 5 µM: 15%
[7]
  inhibition at 5 µM: 3%
[8]
  inhibition at 5 µM: 39%
[9]
  % Inhibition of Control Specific Binding: 33%
[10]
  inhibition at 5 µM: 19%
[11]
  inhibition at 5 µM: 27%
[12]
  inhibition at 5 µM: 32%
[13]
  % Inhibition of Control Specific Binding: -6%
[14]
  inhibition at 5 µM: 98%
[15]
  % Inhibition of Control Specific Binding: -1%
[16]
  % Inhibition of Control Specific Binding: 10%
[17]
  inhibition at 5 µM: 28%
[18]
  % Inhibition of Control Specific Binding: 87%
[19]
  inhibition at 5 µM: 34%
[20]
  % Inhibition of Control Specific Binding: 3%
[21]
  inhibition at 5 µM: 2%
[22]
  inhibition at 5 µM: 21%
[23]
  % Inhibition of Control Specific Binding: 10%
[24]
  % Inhibition of Control Specific Binding: 2%
[25]
  inhibition at 5 µM: 9%
[26]
  inhibition at 5 µM: 7%
[27]
  inhibition at 5 µM: 33%
[28]
  inhibition at 5 µM: 23%
[29]
  inhibition at 5 µM: 3%
[30]
  inhibition at 5 µM: 61%
[31]
  inhibition at 5 µM: 12%
[32]
  inhibition at 5 µM: -23%
[33]
  inhibition at 5 µM: 99%
[34]
  EGF-induced S6P phosphorylation: reduced in both lines
[35]
  inhibition at 5 µM: 20%
[36]
  % Inhibition of Control Specific Binding: 14%
[37]
  inhibition at 5 µM: 10%
[38]
  inhibition at 5 µM: 0%
[39]
  inhibition at 5 µM: 21%
[40]
  inhibition at 5 µM: 70%
[41]
  inhibition at 5 µM: 29%
[42]
  % Inhibition of Control Specific Binding: 11%
[43]
  inhibition at 5 µM: 28%
[44]
  % Inhibition of Control Specific Binding: -2%
[45]
  inhibition at 5 µM: 70%
[46]
  % Inhibition of Control Specific Binding: 12%
